The source made the active and inactive calls. No cut-off for these calls is given here.
Legend:
[1] = tested on: A549; assay: Induction of apoptosis in human A549 cells assessed as nuclear condensation at 10 to 20 uM measured after 12 hrs by DAPI staining based fluorescence microscopic analysis; assay type: functional, cell-based
[2] = tested on: A549; assay: Induction of apoptosis in human A549 cells at 10 to 15 uM in presence of NAC after 12 hrs by flow cytometric analysis; assay type: functional, cell-based
[3] = tested on: A549; assay: Suppression of mitochondrial membrane potential in human A549 cells assessed as increase in green fluorescence at 10 uM after 12 hrs by JC-1 staining based flow cytometry (reference value: 0.4%); assay type: functional
[4] = tested on: A549; assay: Cell cycle arrest in human A549 cells assessed as increase in expression of p53 at 5 to 20 uM measured after 12 hrs by Western blot analysis; assay type: functional, cell-based
[5] = tested on: A549; assay: Induction of apoptosis in human A549 cells assessed as appearance of fragmented apoptotic bodies at 10 to 20 uM measured after 12 hrs by DAPI staining based fluorescence microscopic analysis; assay type: functional, cell-based
[6] = tested on: A549; assay: Induction of apoptosis in human A549 cells assessed as increase in cleaved caspase-3 protein expression level at 5 to 20 uM incubated for 12 hrs by Western blot analysis; assay type: functional, cell-based
[7] = tested on: A549; assay: Cell cycle arrest in human A549 cells assessed as decrease in accumulation of cells at G0/G1 phase at 5 to 10 uM after 24 hrs by propidium iodide staining-based flow cytometric analysis; assay type: functional
[8] = tested on: MCF7; assay: Antiproliferative activity against human MCF7 cells incubated for 48 hrs and measured after 4 hrs by MTT assay; assay type: functional, cell-based
[9] = tested on: A549; assay: Induction of apoptosis in human A549 cells at 10 to 15 uM after 12 hrs by flow cytometric analysis; assay type: functional, cell-based
[10] = tested on: SGC-7901; assay: Antiproliferative activity against human SGC7901 cells incubated for 48 hrs and measured after 4 hrs by MTT assay; assay type: functional, cell-based
[11] = tested on: A549; assay: Induction of apoptosis in human A549 cells measured after 12 hrs by Annexin V-FITC/propidium iodide staining-based flow cytometric analysis; assay type: functional, cell-based
[12] = tested on: A549; assay: Induction of apoptosis in human A549 cells assessed as increase in cleaved PARP protein expression level at 5 to 20 uM incubated for 12 hrs by Western blot analysis; assay type: functional, cell-based
[13] = tested on: PC-3; assay: Antiproliferative activity against human PC3 cells incubated for 48 hrs and measured after 4 hrs by MTT assay; assay type: functional, cell-based
[14] = tested on: A549; assay: Induction of apoptosis in human A549 cells assessed as nuclear shrinkage at 10 to 20 uM measured after 12 hrs by DAPI staining based fluorescence microscopic analysis; assay type: functional, cell-based
[15] = tested on: A549; assay: Induction of apoptosis in human A549 cells assessed as decrease in caspase-3 protein expression level at 5 to 20 uM incubated for 12 hrs by Western blot analysis; assay type: functional, cell-based
[16] = tested on: MCF7; assay: Potency index, ratio of IC50 for AD-2 to IC50 for test compound for antiproliferative activity against human MCF7 incubated for 48 hrs and measured after 4 hrs by MTT assay; assay type: functional
[17] = tested on: A549; assay: Induction of apoptosis in human A549 cells assessed as upregulation of Bax protein expression at 5 to 20 uM incubated for 12 hrs by Western blot analysis; assay type: functional, cell-based
[18] = tested on: A549; assay: Induction of apoptosis in human A549 cells assessed as decrease in PARP protein expression level at 5 to 20 uM incubated for 12 hrs by Western blot analysis; assay type: functional, cell-based
[19] = tested on: A549; assay: Induction of apoptosis in human A549 cells assessed as early apoptotic cells at 15 uM after 12 hrs by Annexin V-FITC/propidium iodide staining-based flow cytometric analysis (reference value: 0.9%); assay type: functional
[20] = Cytotoxicity against human IOSE-144 cells incubated for 48 hrs and measured after 4 hrs by MTT assay; assay type: cell-based
[21] = tested on: A549; assay: Suppression of mitochondrial membrane potential in human A549 cells assessed as increase in green fluorescence at 15 uM after 12 hrs by JC-1 staining based flow cytometry (reference value: 0.4%); assay type: functional
[22] = tested on: A549; assay: Potency index, ratio of IC50 for AD-2 to IC50 for test compound for antiproliferative activity against human A549 incubated for 48 hrs and measured after 4 hrs by MTT assay; assay type: functional
[23] = tested on: A549; assay: Cell cycle arrest in human A549 cells assessed as increase in expression of p21 at 5 to 20 uM measured after 12 hrs by Western blot analysis; assay type: functional, cell-based
[24] = tested on: A549; assay: Induction of apoptosis in human A549 cells assessed as decrease in Bcl2 protein expression level at 5 to 20 uM incubated for 12 hrs by Western blot analysis; assay type: functional, cell-based
[25] = tested on: A549; assay: Cell cycle arrest in human A549 cells assessed as increase in accumulation of cells at S phase at 5 to 10 uM after 24 hrs by propidium iodide staining-based flow cytometric analysis; assay type: functional
[26] = tested on: MGC-803; assay: Potency index, ratio of IC50 for AD-2 to IC50 for test compound for antiproliferative activity against human MGC803 incubated for 48 hrs and measured after 4 hrs by MTT assay; assay type: functional
[27] = tested on: A549; assay: Cell cycle arrest in human A549 cells assessed as increase in accumulation of cells at sub G0/G1 phase after 24 hrs by propidium iodide staining-based flow cytometric analysis; assay type: functional
[28] = tested on: SGC-7901; assay: Potency index, ratio of IC50 for AD-2 to IC50 for test compound for antiproliferative activity against human SGC7901 incubated for 48 hrs and measured after 4 hrs by MTT assay; assay type: functional
[29] = tested on: MGC-803; assay: Antiproliferative activity against human MGC803 cells incubated for 48 hrs and measured after 4 hrs by MTT assay; assay type: functional, cell-based
[30] = tested on: A549; assay: Induction of apoptosis in human A549 cells assessed as decrease in caspase-9 protein expression level at 5 to 20 uM incubated for 12 hrs by Western blot analysis; assay type: functional, cell-based
[31] = tested on: A549; assay: Induction of apoptosis in human A549 cells assessed as early apoptotic cells at 10 uM after 12 hrs by Annexin V-FITC/propidium iodide staining-based flow cytometric analysis (reference value: 0.9%); assay type: functional
[32] = tested on: A549; assay: Induction of apoptosis in human A549 cells assessed as appearance of apoptotic bodies at 10 to 20 uM by microscopic analysis; assay type: functional, cell-based
[33] = tested on: A549; assay: Induction of ROS generation in human A549 cells assessed as intracellular ROS level at 10 to 15 uM after 30 mins by DCFH-DA staining-based flow cytometric analysis; assay type: functional, cell-based
[34] = tested on: A549; assay: Antiproliferative activity against human A549 cells incubated for 48 hrs and measured after 4 hrs by MTT assay; assay type: functional, cell-based
[35] = tested on: A549; assay: Cell cycle arrest in human A549 cells assessed as decrease in accumulation of cells at G2/M phase at 5 to 10 uM after 24 hrs by propidium iodide staining-based flow cytometric analysis; assay type: functional
[36] = tested on: A549; assay: Induction of apoptosis in human A549 cells assessed as cell shrinkage at 10 to 20 uM by microscopic analysis; assay type: functional, cell-based
[37] = tested on: A549; assay: Induction of apoptosis in human A549 cells assessed as upregulation of Cyt c protein expression at 5 to 20 uM incubated for 12 hrs by Western blot analysis; assay type: functional, cell-based
[38] = tested on: A549; assay: Induction of apoptosis in human A549 cells assessed as increase in cleaved caspase-9 protein expression level at 5 to 20 uM incubated for 12 hrs by Western blot analysis; assay type: functional, cell-based
[39] = tested on: PC-3; assay: Potency index, ratio of IC50 for AD-2 to IC50 for test compound for antiproliferative activity against human PC3 incubated for 48 hrs and measured after 4 hrs by MTT assay; assay type: functional
[40] = tested on: A549; assay: Induction of ROS generation in human A549 cells assessed as intracellular ROS level at 10 to 15 uM after 30 mins in presence of NAC by DCFH-DA staining-based flow cytometric analysis; assay type: functional, cell-based

CC(C)(O)CCC[C@@](C)(O)[C@H]1CC[C@]2(C)[C@@H]1[C@H](O)C[C@@H]1[C@@]3(C)CC[C@H](OC(=O)C4CCNCC4)C(C)(C)[C@@H]3CC[C@]12C
Activity [1]: Active | Activity [2]: inactive | Activity [3]: 7.5% | Activity [4]: Active | Activity [5]: Active | Activity [6]: Active | Activity [7]: Active | IC50 [8]: 1.27 µM | Activity [9]: Active | IC50 [10]: 7.11 µM | Activity [11]: Dose-dependent effect | Activity [12]: Active | IC50 [13]: 5.44 µM | Activity [14]: Active | Activity [15]: Active | Ratio IC50 [16]: 5 - 28 | Activity [17]: Active | Activity [18]: Active | Activity [19]: 50% | IC50 [20]: > 100 µM | Activity [21]: 27.6% | Ratio IC50 [22]: 5 - 28 | Activity [23]: Active | Activity [24]: Active | Activity [25]: Active | Ratio IC50 [26]: 5 - 28 | Activity [27]: Active | Ratio IC50 [28]: 5 - 28 | IC50 [29]: 6.51 µM | Activity [30]: Active | Activity [31]: 27% | Activity [32]: Active | Activity [33]: Active | IC50 [34]: 1.07 µM | Activity [35]: Active | Activity [36]: Active | Activity [37]: Active | Activity [38]: Active | Ratio IC50 [39]: 5 - 28 | Activity [40]: inactive

CC(C)(O)CCC[C@@](C)(O)[C@H]1CC[C@]2(C)[C@@H]1[C@H](O)C[C@@H]1[C@@]3(C)C/C(=C\c4ccc(F)cc4F)C(=O)C(C)(C)[C@@H]3CC[C@]12C
IC50 [8]: 8.32 µM | IC50 [10]: 11.2 µM | IC50 [13]: 13.1 µM | Ratio IC50 [16]: 3 - 8 | IC50 [20]: > 100 µM | Ratio IC50 [22]: 3 - 8 | Ratio IC50 [26]: 3 - 8 | Ratio IC50 [28]: 3 - 8 | IC50 [29]: 9.32 µM | IC50 [34]: 12.6 µM | Ratio IC50 [39]: 3 - 8

CC(C)(O)CCC[C@@](C)(O)[C@H]1CC[C@]2(C)[C@@H]1[C@H](O)C[C@@H]1[C@@]3(C)CC[C@H](NC(=O)C4CCN(C(=O)OC(C)(C)C)CC4)C(C)(C)[C@@H]3CC[C@]12C
IC50 [8]: 89.5 µM | IC50 [10]: 18.8 µM | IC50 [13]: 17.9 µM | IC50 [20]: > 100 µM | IC50 [29]: 11.4 µM | IC50 [34]: 11.7 µM

CC(C)(O)CCC[C@@](C)(O)[C@H]1CC[C@]2(C)[C@@H]1[C@H](O)C[C@@H]1[C@@]3(C)CC[C@H](NC(=O)C4CCCN(C(=O)OC(C)(C)C)C4)C(C)(C)[C@@H]3CC[C@]12C (some centres undefined)
IC50 [8]: 21.2 µM | IC50 [10]: 18.1 µM | IC50 [13]: 23.1 µM | IC50 [20]: > 100 µM | IC50 [29]: 16.8 µM | IC50 [34]: 23.5 µM

CC(C)(O)CCC[C@@](C)(O)[C@H]1CC[C@]2(C)[C@@H]1[C@H](O)C[C@@H]1[C@@]3(C)C/C(=C\c4cccc(Br)c4)C(=O)C(C)(C)[C@@H]3CC[C@]12C
IC50 [8]: 12.2 µM | IC50 [10]: 20.6 µM | IC50 [13]: 14.1 µM | IC50 [20]: > 100 µM | IC50 [29]: 13.6 µM | IC50 [34]: 34.7 µM

CC(C)(O)CCC[C@@](C)(O)[C@H]1CC[C@]2(C)[C@@H]1[C@H](O)C[C@@H]1[C@@]3(C)C/C(=C\c4cccc([N+](=O)[O-])c4)C(=O)C(C)(C)[C@@H]3CC[C@]12C
IC50 [8]: 12.7 µM | IC50 [10]: 17.6 µM | IC50 [13]: 14.1 µM | IC50 [20]: > 100 µM | IC50 [29]: 11.3 µM | IC50 [34]: 16.7 µM

CC(C)(O)CCC[C@@](C)(O)[C@H]1CC[C@]2(C)[C@@H]1[C@H](O)C[C@@H]1[C@@]3(C)CC[C@H](O)C(C)(C)[C@@H]3CC[C@]12C
Activity [1]: inactive | Activity [5]: inactive | IC50 [8]: 28.5 µM | IC50 [10]: 34 µM | IC50 [13]: 45.7 µM | Activity [14]: inactive | IC50 [20]: > 100 µM | IC50 [29]: 69.8 µM | IC50 [34]: 22.7 µM
